Measured values reported in publication PMC8156151 (The European Respiratory Journal, 2021).
Read-outs that look alike come from different tables or passages of the source.

Legend:
Type in all cases: in vivo, human
[1] = TD139 concentration in BAL alveolar macrophages, ELF and plasma
Method: (§1) Full plasma PK profiles were conducted on days 1 (first day of dosing) and 14 (last day of dosing). […] Standard noncompartmental methods were applied to derive PK parameters using Phoenix WinNonlin version 6.3 (Certara, Sheffield, UK). […] Drug compartment measurements in BAL alveolar macrophages and fluid were determined as described previously.

PTX3 = experiment: Plasma biomarker PTX3; settings: for Pentraxin-3 (PTX3) raw data, Mean (SD) / PTX3 least square means % baseline±SEM: IPF patients
Method: (§2) All patients, investigators, sites and study sponsor personnel were blinded to the study group assignments throughout the study. Patients underwent study-specific assessments on days 2, 3, 7, 14 and 15, and a post-study assessment was carried out 26–30 days after the last day of the study period. Assessments included vital signs (supine blood pressure, pulse, oxygen saturation, oral temperature and respiratory rate), spirometry, 12-lead ECG, physical examination, laboratory safety screen (haematology, biochemistry, urinalysis and urinary drugs of abuse screen) and blood sampling for PK measurements. All adverse events and concomitant medications were recorded from the time of the screening visit until the post-study follow-up visit. BAL was performed at day −1 (24 h before the first dose) and at day 14 (2 h after the last dose). The BAL procedure was performed as per international guidelines. Briefly, 240 mL of 0.9% saline at room temperature was instilled in 40 mL aliquots into the right middle lobe and aspirated by suction after each aliquot.
(§3) BAL cells were separated from fluid by centrifugation, and cells were collected, stained with antibodies (supplementary material) and then fixed before analysis using a LSR Fortessa flow cytometer (Becton Dickinson, Franklin Lakes, NJ, USA). Data were analysed using FlowJo software (Tree Star, Ashland, OR, USA). Macrophages were identified as having high side scatter properties and human leukocyte antigen-DR positivity. Gal-3 expression (mean fluorescence intensity) was determined from the macrophage gate (supplementary figures S1 and S2). […] Samples were analysed by magnetic Luminex assay (R&D Systems, Minneapolis, MN, USA) or ELISA.
(§4) For part 2 of the study, placebos were combined from the three dose-specific cohorts into a pooled control group (n=9). For alveolar macrophage Gal-3 expression and the plasma biomarkers, ANCOVA was performed for percentage of baseline ((day 14/day 1)×100). The ANCOVA model included effects for treatment group and baseline (day 1) value. […] An additional analysis including dose as a continuous covariate was also performed. The Pearson correlation coefficient (r) and associated p-value were calculated for percentage of baseline and day 14 values between plasma biomarkers and alveolar macrophage Gal-3 expression. […] The analysis is exploratory and there was no pre-planned adjustment for multiple testing; the study was not powered for this. Alveolar macrophage Gal-3 expression was considered the primary exploratory analysis with the pre-selected biomarkers secondary. A Bonferroni correction for multiple testing of the secondary end-points comparing the 10 mg group with placebo gives a critical value of 0.0063. Data are presented as the difference in least square means with 95% confidence interval and p-value unless otherwise stated. All analyses were performed using SAS version 9.4 (SAS Institute, Cary, NC, USA). […]

MMP-7 = experiment: Plasma biomarker MMP-7; settings: for MMP-7 raw data, Mean (SD) / MMP-7 least square means % baseline±SEM: IPF patients
Method: as §2, §3, §4

Gal-1 = experiment: Plasma biomarker Gal-1; settings: for Galectin-1 raw data, Mean (SD) / Gal-1 least square means % baseline±SEM: IPF patients
Method: as §2, §3, §4

IL-1ra = experiment: Plasma biomarker IL-1ra; settings: for IL-1ra raw data, Mean (SD) / IL-1ra least square means % baseline±SEM: IPF patients
Method: as §2, §3, §4

[2] = Plasma pharmacokinetics, part 2 (IPF patients); settings: for Cmin (plasma concentration at 24 h post-dose): BLQ: below limit of quantification (0.5 ng·mL^−1); for half-life / Cmax / concentration at 24 h / AUC(0-inf): human, plasma, inhaled; for concentration at 24 h: read-out: Cmin (plasma concentration at 24 h post-dose)
Method: as §1

[3] = IPF patients, after 14 days of dosing
[4] = 3 mg, IPF patients, Day 1, 3 mg once daily, mean±SD
[5] = 3 mg, IPF patients, Day 14, 3 mg once daily, mean±SD
[6] = 10 mg, IPF patients, Day 1, 10 mg once daily, mean±SD
[7] = 10 mg, IPF patients, Day 14, 10 mg once daily, mean±SD

With `OC[C@H]1O[C@@H](S[C@@H]2O[C@H](CO)[C@H](O)[C@H](n3cc(-c4cccc(F)c4)nn3)[C@H]2O)[C@H](O)[C@@H](n2cc(-c3cccc(F)c3)nn2)[C@H]1O` [TD139] the “correlation between concentrations of TD139 in ELF and AMs (r)” value ([1]; all active cohorts, day 14) was 0.89 (95% CI 0.70–0.96), the “correlation between concentrations of TD139 in plasma (total) and AMs (r)” value ([1]; all active cohorts, day 14) was 0.89 (95% CI 0.65–0.96) and the Kp at 2 h ([1]; human, inhaled, concentration of TD139 in BAL macrophages (lung) relative to systemic exposure (blood), IPF patients, 2 h post-dosing on day 14) was greater than 567. For the same molecule, the “PTX3 difference in least square means % baseline (95% CI)” value (PTX3; 10 mg vs placebo, ANCOVA) was −69.6 (−220.3–81.2) % baseline, the “Pentraxin-3 (PTX3) raw data, Mean (SD)” value (PTX3; Day 14, 0.3 mg) was 116.3 (214.7) pg/ml and the “Pentraxin-3 (PTX3) raw data, Mean (SD)” value (PTX3; Day 14, 3 mg) was 629.9 (581.55) pg/ml. The “Pentraxin-3 (PTX3) raw data, Mean (SD)” value (PTX3; Day 14, 10 mg) was 2534.7 (4451.2) pg/ml, the “PTX3 least square means % baseline±SEM” value (PTX3; day 14, 0.3 mg once daily) was 51.8±68.6 % baseline and the “PTX3 least square means % baseline±SEM” value (PTX3; day 14, 3 mg once daily) was 74.2±53.1 % baseline. The “PTX3 least square means % baseline±SEM” value (PTX3; day 14, 10 mg once daily) was 67.0±56.1 % baseline, the “MMP-7 difference in least square means % baseline (95% CI)” value (MMP-7; 10 mg vs placebo, ANCOVA) was −82.0 (−237.9–73.9) % baseline and the “MMP-7 raw data, Mean (SD)” value (MMP-7; Day 14, 0.3 mg) was 447.6 (205.21) pg/ml. The “MMP-7 raw data, Mean (SD)” value (MMP-7; Day 14, 3 mg) was 1849.2 (2244.12) pg/ml, the “MMP-7 raw data, Mean (SD)” value (MMP-7; Day 14, 10 mg) was 1130.6 (939.62) pg/ml and the “MMP-7 least square means % baseline±SEM” value (MMP-7; day 14, 0.3 mg once daily) was 79.3±59.2 % baseline. The “MMP-7 least square means % baseline±SEM” value (MMP-7; day 14, 3 mg once daily) was 82.3±58.4 % baseline, the “MMP-7 least square means % baseline±SEM” value (MMP-7; day 14, 10 mg once daily) was 84.4±58.7 % baseline and the “Gal-1 difference in least square means % baseline (95% CI)” value (Gal-1; 10 mg vs placebo, ANCOVA) was −16.6 (−60.0–26.7) % baseline. For the same molecule, the “Galectin-1 raw data, Mean (SD)” value (Gal-1; Day 14, 0.3 mg) was 41996.4 (7357.87) pg/ml, the “Galectin-1 raw data, Mean (SD)” value (Gal-1; Day 14, 3 mg) was 60416.7 (17348.65) pg/ml and the “Galectin-1 raw data, Mean (SD)” value (Gal-1; Day 14, 10 mg) was 48409.7 (21339.06) pg/ml. For the same molecule, the “Gal-1 least square means % baseline±SEM” value (Gal-1; day 14, 0.3 mg once daily) was 93.1±16.7 % baseline, the “Gal-1 least square means % baseline±SEM” value (Gal-1; day 14, 3 mg once daily) was 120.2±16.6 % baseline and the “Gal-1 least square means % baseline±SEM” value (Gal-1; day 14, 10 mg once daily) was 89.7±16.6 % baseline. For the same molecule, the “IL-1ra difference in least square means % baseline (95% CI)” value (IL-1ra; 10 mg vs placebo, ANCOVA) was 6.0 (−47.5–59.4) % baseline, the “IL-1ra raw data, Mean (SD)” value (IL-1ra; Day 14, 0.3 mg) was 548.3 (279.69) pg/ml and the “IL-1ra raw data, Mean (SD)” value (IL-1ra; Day 14, 3 mg) was 709.8 (338.05) pg/ml. The “IL-1ra raw data, Mean (SD)” value (IL-1ra; Day 14, 10 mg) was 1992.9 (2627.15) pg/ml, the “IL-1ra least square means % baseline±SEM” value (IL-1ra; day 14, 0.3 mg once daily) was 93.2±20.3 % baseline and the “IL-1ra least square means % baseline±SEM” value (IL-1ra; day 14, 3 mg once daily) was 98.7±20.2 % baseline. For the same molecule, the “IL-1ra least square means % baseline±SEM” value (IL-1ra; day 14, 10 mg once daily) was 98.0±20.8 % baseline, the “Cmin (plasma concentration at 24 h post-dose)” value ([2]; IPF patients, Day 1, 0.3 mg once daily) was “BLQ” and the “Cmin (plasma concentration at 24 h post-dose)” value ([2]; IPF patients, Day 14, 0.3 mg once daily) was “BLQ”. The accumulation [2, 3] was roughly 50%, the “increase in AUC0−inf, 10 mg values” [2, 3] was 8 fold and the “increase in Cmax, 10 mg values” [2, 3] was 5 fold. For the same molecule, the expected accumulation ([2]; from T1/2 of ∼8 h and dosing interval of 24 h) was roughly 14%, the half-life ([2]; inhaled or intranasal, overall value, read-out: plasma half-life (T1/2) (converted)) was 8 h and the Cmax ([2]; 0.3 mg, IPF patients, Day 1, 0.3 mg once daily, mean±SD) was 0.55 ± 0.02 ng/mL. For the same molecule, the Cmax ([2]; 0.3 mg, IPF patients, Day 14, 0.3 mg once daily, mean±SD) was 0.86 ± 0.25 ng/mL, the concentration at 24 h [2, 4] was 1.06 ± 0.43 ng/mL and the concentration at 24 h [2, 5] was 1.48 ± 0.51 ng/mL. The AUC(0-inf) [2, 4] was 69 ± 50 ng·h/mL, the Cmax [2, 4] was 10.6 ± 11.1 ng/mL and the half-life ([2]; 3 mg, IPF patients, Day 1, 3 mg once daily, mean±SD, read-out: T1/2 (converted)) was 6.36 ± 2.09 h. The AUC(0-inf) [2, 5] was 149 ± 47 ng·h/mL, the Cmax [2, 5] was 16.5 ± 8.34 ng/mL and the half-life ([2]; 3 mg, IPF patients, Day 14, 3 mg once daily, mean±SD, read-out: T1/2 (converted)) was 6.91 ± 1.4 h. For the same molecule, the concentration at 24 h [2, 6] was 12.9 ± 7.88 ng/mL, the concentration at 24 h [2, 7] was 14.7 ± 8.64 ng/mL and the AUC(0-inf) [2, 6] was 921 ± 479 ng·h/mL. The Cmax [2, 6] was 56.3 ± 19.3 ng/mL, the half-life ([2]; 10 mg, IPF patients, Day 1, 10 mg once daily, mean±SD, read-out: T1/2 (converted)) was 9.69 ± 1.7 h and the AUC(0-inf) [2, 7] was 1150 ± 462 ng·h/mL. The Cmax [2, 7] was 82.8 ± 11.8 ng/mL and the half-life ([2]; 10 mg, IPF patients, Day 14, 10 mg once daily, mean±SD, read-out: T1/2 (converted)) was 8.2 ± 2.26 h.
